# According to US6900219B2, “ABCA-1 elevating compounds” (CV Therapeutics, Inc., priority 2002, dated 2005):
# Tested on: ABCA-1 gene
# Assay: compounds tested and found to elevate cellular expression of the ABCA-1 gene (Examples 1-6; test not named)
# Assay type: cell-based
# Method: Activity testing is conducted as described in those patents and patent applications referenced above, and in the Examples below, and by methods apparent to one skilled in the art.
row,SMILES,cellular expression of the ABCA-1 gene
1,"N#Cc1ccc(C(=O)NC2=NCCS2)cc1 [(4-cyanophenyl)-N-(1,3-thiazolin-2-yl)carboxamide]",elevate cellular expression of the ABCA-1 gene
2,"N#Cc1ccc(C(=O)Nc2nc(-c3ccc4ccccc4c3)cs2)cc1 [(4-cyanophenyl)-N-(4-(2-naphthyl)(1,3-thiazol-2-yl))carboxamide]",elevate cellular expression of the ABCA-1 gene
3,"N#Cc1ccc(C(=O)NC2=NC(=O)CS2)cc1 [(4-cyanophenyl)-N-(4-oxo(1,3-thiazolin-2-yl))carboxamide]",elevate cellular expression of the ABCA-1 gene
4,"N#Cc1ccc(C(=O)Nc2nc(-c3ccccc3)cs2)cc1 [(4-cyanophenyl)-N-(4-phenyl(1,3-thiazol-2-yl))carboxamide]",elevate cellular expression of the ABCA-1 gene
5,"N#Cc1ccc(C(=O)Nc2ncc(-c3ccccc3)s2)cc1 [(4-cyanophenyl)-N-(5-phenyl(1,3-thiazol-2-yl))carboxamide]",elevate cellular expression of the ABCA-1 gene
6,CCc1ccc(C(=O)NCCN(C(=O)Nc2ccc([N+](=O)[O-])cc2)c2ccccc2)cc1 [(4-ethylphenyl)-N-(2-{[N-(4-nitrophenyl)carbamoyl]phenylamino}ethyl)carboxamide],elevate cellular expression of the ABCA-1 gene
7,CCc1ccc(C(=O)NCCN(C(=O)Nc2ccc(Oc3ccccc3)cc2)c2ccccc2)cc1 [(4-ethylphenyl)-N-(2-{phenyl[N-(4-phenoxyphenyl)carbamoyl]amino}ethyl) carboxamide],elevate cellular expression of the ABCA-1 gene
8,CCc1ccc(C(=O)N(CCc2ccccn2)Cc2ccccc2[N+](=O)[O-])cc1 [(4-ethylphenyl)-N-[(2-nitrophenyl)methyl]-N-(2-(2-pyridyl)ethyl)carboxamide],elevate cellular expression of the ABCA-1 gene
9,"O=C(NC1=NCCS1)c1ccc(F)cc1 [(4-fluorophenyl)-N-(1,3-thiazolin-2-yl)carboxamide]",elevate cellular expression of the ABCA-1 gene
10,"O=C1CSC(NC(=O)c2ccc(F)cc2)=N1 [(4-fluorophenyl)-N-(4-oxo(1,3-thiazolin-2-yl))carboxamide]",elevate cellular expression of the ABCA-1 gene
11,"COc1ccc(C(=O)NC2=NCCS2)cc1 [(4-methoxyphenyl)-N-(1,3-thiazolin-2-yl)carboxamide]",elevate cellular expression of the ABCA-1 gene
12,COc1ccc(C(=O)NCCc2ccccn2)cc1 [(4-methoxyphenyl)-N-(2-(2-pyridyl)ethyl)carboxamide],elevate cellular expression of the ABCA-1 gene
13,"COc1ccc(C(=O)Nc2nc(-c3ccccc3)cs2)cc1 [(4-methoxyphenyl)-N-(4-phenyl(1,3-thiazol-2-yl))carboxamide]",elevate cellular expression of the ABCA-1 gene
14,"Cc1ccc(C(=O)NC2=NCCS2)cc1 [(4-methylphenyl)-N-(1,3-thiazolin-2-yl)carboxamide]",elevate cellular expression of the ABCA-1 gene
15,Cc1ccc(C(=O)NCCc2ccccn2)cc1 [(4-methylphenyl)-N-(2-(2-pyridyl)ethyl)carboxamide],elevate cellular expression of the ABCA-1 gene
16,"Cc1ccc(C(=O)NC2=NC(=O)CS2)cc1 [(4-methylphenyl)-N-(4-oxo(1,3-thiazolin-2-yl))carboxamide]",elevate cellular expression of the ABCA-1 gene
17,"O=C1CSC(NC(=O)c2ccc(OC(F)(F)F)cc2)=N1 [(4-trifluoromethoxyphenyl)-N-(4-oxo(1,3-thiazolin-2-yl))carboxamide]",elevate cellular expression of the ABCA-1 gene
18,N#Cc1c(NC(=O)c2ccc(Br)o2)sc2ccccc12 [(5-bromo(2-furyl)-N-(3-cyanobenzo[b]thiophen-2-yl)carboxamide],elevate cellular expression of the ABCA-1 gene
19,CCCCNC(=O)N(Cc1ccco1)C(C)c1nc2cc(Cl)ccc2c(=O)n1-c1ccc(C)cc1 (stereo not drawn) [(butylamino)-N-{[7-chloro-3-(4-methylphenyl)-4-oxo(3-hydroquinazolin-2-yl)]ethyl}-N-(2-furylmethyl)carboxamide],elevate cellular expression of the ABCA-1 gene
20,CCCCNC(=O)N(CCC(C)C)C(C)c1nc2cc(Cl)ccc2c(=O)n1-c1ccc(C)cc1 (stereo not drawn) [(butylamino)-N-{[7-chloro-3-(4-methylphenyl)-4-oxo(3-hydroquinazolin-2-yl)]ethyl}-N-(3-methylbutyl)carboxamide],elevate cellular expression of the ABCA-1 gene

row,SMILES,cellular expression of the ABCA-1 gene
1,O=C(Nc1ccc2c(c1)CCC2)NC1CCCCC1 [(cyclohexylamino)-N-indan-5-ylcarboxamide],elevate cellular expression of the ABCA-1 gene
2,CN(C)c1ccc(CN(C(=O)Nc2ccccc2F)c2ccc3c(c2)CCC3)cc1 [({[4-(dimethylamino)phenyl]methyl}indan-5-ylamino)-N-(2-fluorophenyl)carboxamide],elevate cellular expression of the ABCA-1 gene
3,"CCc1c(C(=O)NC(C)C(C)C)cnn1-c1nc(-c2ccc(C)cc2)cs1 (stereo not drawn) [N-(1,2-dimethylpropyl){5-ethyl-1-[4-(4-methylphenyl)(1,3-thiazol-2-yl)]pyrazol-4-yl}carboxamide]",elevate cellular expression of the ABCA-1 gene
4,"O=C(Nc1nccs1)c1ccc(OC(F)(F)F)cc1 [N-(1,3-thiazol-2-yl)[4-(trifluoromethoxy)phenyl]carboxamide]",elevate cellular expression of the ABCA-1 gene
5,"O=C(NC1=NCCS1)c1ccc(C(F)(F)F)cc1 [N-(1,3-thiazolin-2-yl)[4-(trifluoromethyl)phenyl]carboxamide]",elevate cellular expression of the ABCA-1 gene
6,"CCCCN(CC(=O)N1CCc2ccccc2C1)C(=O)Nc1cccc(Cl)c1Cl [N-(2,3-dichlorophenyl)[butyl(2-oxo-2-(2-1,2,3,4-tetrahydroisoquinolyl)ethyl)amino]carboxamide]",elevate cellular expression of the ABCA-1 gene
7,"Cc1ccc(C)c(NC(=O)c2sc3ccccc3c2Cl)c1 [N-(2,5-dimethylphenyl)(3-chlorobenzo[b]thiophen-2-yl)carboxamide]",elevate cellular expression of the ABCA-1 gene
8,"Cc1cccc(C)c1NC(=O)c1sc2ccccc2c1Cl [N-(2,6-dimethylphenyl)(3-chlorobenzo[b]thiophen-2-yl)carboxamide]",elevate cellular expression of the ABCA-1 gene
9,O=C(Nc1cccc(Cl)c1)Nc1ccccc1Cl [N-(2-chlorophenyl)[(3-chlorophenyl)amino]carboxamide],elevate cellular expression of the ABCA-1 gene
10,O=C(Nc1cccc(Cl)c1)Nc1ccccc1F [N-(2-fluorophenyl)[(3-chlorophenyl)amino]carboxamide],elevate cellular expression of the ABCA-1 gene
11,"COc1cc2c(cc1NC(=O)C(C)(C)C)oc1ccccc12 [N-(2-methoxydibenzo[b,d]furan-3-yl)-2,2-dimethylpropanamide]",elevate cellular expression of the ABCA-1 gene
12,CC(C)CN(C(=O)Nc1cccc2ccccc12)C(C)c1nc2ccccc2c(=O)n1-c1ccc2ccccc2c1 (stereo not drawn) [N-(2-methylpropyl)(naphthylamino)-N-[(3-(2-naphthyl)-4-oxo(3-hydroquinazolin-2-yl))ethyl]carboxamide],elevate cellular expression of the ABCA-1 gene
13,CC(C)CN(C(=O)Nc1cccc(C(F)(F)F)c1)C(C)c1nc2ccccc2c(=O)n1-c1ccc2ccccc2c1 (stereo not drawn) [N-(2-methylpropyl)-N-[(3-(2-naphthyl)-4-oxo(3-hydroquinazolin-2-yl))ethyl]{[3-(trifluoromethyl)phenyl]amino}carboxamide],elevate cellular expression of the ABCA-1 gene
14,CSc1ccc(NC(=O)N(CC(C)C)C(C)c2nc3ccccc3c(=O)n2-c2ccc3ccccc3c2)cc1 (stereo not drawn) [N-(2-methylpropyl)[(4-methylthiophenyl)amino]-N-[(3-(2-naphthyl)-4-oxo(3-hydroquinazolin-2-yl))ethyl]carboxamide],elevate cellular expression of the ABCA-1 gene
15,"O=C(Nc1ccc2c(c1)OCCO2)c1ccc([N+](=O)[O-])cc1Cl [N-(2H,3H-benzo[e]1,4-dioxan-6-yl)(2-chloro-4-nitrophenyl)carboxamide]",elevate cellular expression of the ABCA-1 gene
16,"O=C(COCc1ccccc1)Nc1ccc2c(c1)OCCO2 [N-(2H,3H-benzo[e]1,4-dioxin-6-yl)-2-(phenylmethoxy)acetamide]",elevate cellular expression of the ABCA-1 gene
17,"O=C(CCC1CCCC1)Nc1ccc2c(c1)OCCO2 [N-(2H,3H-benzo[e]1,4-dioxin-6-yl)-3-cyclopentylpropanamide]",elevate cellular expression of the ABCA-1 gene
18,"CC(C)(C)c1ccc(C(=O)Nc2ccc3c(c2)OCCO3)cc1 [N-(2H,3H-benzo[e]1,4-dioxin-6-yl)[4-(tert-butyl)phenyl]carboxamide]",elevate cellular expression of the ABCA-1 gene
19,"O=C(Nc1ccc2c(c1)OCCO2)Nc1ccccc1Br [N-(2H,3H-benzo[e]1,4-dioxin-6-yl)[(2-bromophenyl)amino]carboxamide]",elevate cellular expression of the ABCA-1 gene
